From ChEMBL document CHEMBL5506066, “Potency-Enhanced Peptidomimetic VHL Ligands with Improved Oral Bioavailability” (J Med Chem, 2024) come the findings set out here.

Values after ≈ are worked out from the molar mass of the structure shown. Some results are limits rather than exact numbers.

For orientation: solubility means the dissolved amount per volume that the medium holds. Lower therefore signals a poorly soluble substance. As a reminder, the Kd is the constant that tells how readily two partners part at equilibrium. One may read the bioavailability as dose-corrected exposure relative to a reference, in per cent. High values mean good availability, low ones poor availability. For orientation: clearance means a measure of how efficiently the substance is removed, as volume per time. Higher therefore signals efficient removal. The half-life is the time needed for the level to fall by half in the phase considered. A word on the Vd: it is the apparent volume that relates the amount in the body to the concentration in plasma or blood. A high value points to extensive tissue distribution. As usually defined, the Papp A→B is how fast a substance crosses the layer from the apical side.

Series [1] can be described thus: Solubility of the compound in FaSSIF. Format: ADME.
Series [2] deals with T1, von Hippel-Lindau disease tumor suppressor (Homo sapiens, UniProt P40337). Nature of the series: biochemical.
T1 sequence (P40337 whole entry): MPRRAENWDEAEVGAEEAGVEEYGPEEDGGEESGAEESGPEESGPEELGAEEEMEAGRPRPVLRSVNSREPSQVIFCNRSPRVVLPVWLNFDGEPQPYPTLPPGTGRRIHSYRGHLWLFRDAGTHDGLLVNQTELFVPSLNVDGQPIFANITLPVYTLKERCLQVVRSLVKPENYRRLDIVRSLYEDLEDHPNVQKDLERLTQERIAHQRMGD
Description: Binding affinity to VHL (unknown origin)-NanoLuc fusion protein expressed in HEK293 cells assessed as apparent dissociation constant incubated for 30 mins in presence of digitonin by NanoBRET assay
In series [3] the target is T1, von Hippel-Lindau disease tumor suppressor.
Series [4] is described as follows: Oral bioavailability in female C57Bl/6 mouse at 10 mg/kg measured upto 8 hrs by LC-MS/MS analysis. The class given is ADME, organism-based. The note with it: in vivo.
Series [5] is described as follows: Plasma clearance in female C57Bl/6 mouse at 1 mg/kg, iv measured upto 8 hrs by LC-MS/MS analysis. Format: ADME, organism-based.
The nature of series [6]: Half life in female C57Bl/6 mouse at 10 mg/kg, po measured upto 8 hrs by LC-MS/MS analysis. The class given is ADME, organism-based. The following applies: in vivo.
A short description of series [7]: Plasma protein binding in human at 5 uM incubated for 4 hrs by HPLC analysis. The class given is ADME, cell-free. The following applies: read-out: PPB (converted).
A short description of series [8]: Volume of distribution in female C57Bl/6 mouse at 1 mg/kg, iv measured upto 8 hrs by LC-MS/MS analysis. Format: ADME, organism-based. The note with it: in vivo.
Series [9] can be described thus: Plasma protein binding in CD-1 mouse at 5 uM incubated for 4 hrs by HPLC analysis. The following applies: read-out: PPB (converted). The class given is ADME, cell-free.
Series [10] can be described thus: Apparent permeability from apical to basolateral side in MDCKI cells at 10 uM measured upto 180 mins by LC-MS/MS analysis. The note with it: dog, MDCK. The class given is ADME, cell-based, Canis lupus familiaris, MDCK1.
Series [11] is described as follows: Permeability of the compound at pH 7.4 in PBS incubated for 16 hrs by LC-MS/MS based PAMPA assay. The class given is ADME. The note with it: read-out: permeability. For orientation: PAMPA measures passive passage across an artificial lipid membrane.
For series [12], the target named is T1, von Hippel-Lindau disease tumor suppressor. The experiment in a line: Binding affinity to Navi-tagged VHL (unknown origin) assessed as dissociation constant by SPR assay.

For `CC(=O)N[C@H](C(=O)N1C[C@H](O)C[C@H]1C(=O)N[C@@H](C)c1ccc(-c2scnc2C)cc1)C(C)(C)C`, the solubility in [1] was above 200 µM. In addition, the Kd is 120 nM in series [2] and 180 nM in [3]. In [4], this molecule displayed a bioavailability of 2.7%. Also, the clearance in series [5] is 57.7 mL/min/kg. The half-life in [6] is 228 min. The fraction unbound at 4 h, 5 µM in series [7] was 0.516; in [9], 0.399. Further, in series [8], the Vd came out at 0.9 L/kg. The Papp A→B at 3 h, 10 µM in [10] was 0.7 ×10⁻⁶ cm/s.
`CC(=O)N[C@H](C(=O)N1C[C@H](O)C[C@H]1C(=O)N[C@H](Cc1ccc(-c2scnc2C)cc1)C(N)=O)C(C)(C)C`: the Kd was 3290 nM in series [2] and above 51800 nM in [3]. In addition, the Papp at 16 h in series [11] came to 0.19 ×10⁻⁶ cm/s.
On to `Cc1ncsc1-c1ccc2c(c1)CCCC[C@@H]2NC(=O)[C@@H]1C[C@@H](O)CN1C(=O)[C@@H](n1cc(C2CC2)nn1)C(C)(C)C`, for which the concentration in solution in series [1] (solubility) was 190 µM (≈ 110 µg/mL). The Kd in series [2] was below 2.5 nM; in series [3] it was below 2.5 nM; in series [12], 0.54 nM. Also, the bioavailability in series [4] amounted to 46.5%. In series [5], this molecule yielded a clearance of 13.9 mL/min/kg. The same molecule had a half-life in series [6] of 138 min. Further, the fraction unbound at 4 h, 5 µM in series [7] and in series [9] was 0.003 in each case. In [8], this molecule registered a volume of distribution (Vd) of 0.7 L/kg. Moreover, the Papp A→B at 3 h, 10 µM in series [10] was 8.9 ×10⁻⁶ cm/s.
On to `CC(=O)N[C@H](C(=O)N1C[C@H](O)C[C@H]1C(=O)N[C@H](Cc1ccc(-c2ccccc2)cc1)C(N)=O)C(C)(C)C`, for which, in series [11], the Papp at 16 h worked out at 0.004 ×10⁻⁶ cm/s.
